Laboratory results: ChEMBL document CHEMBL3044899, “Effect of chloro and fluoro groups on the antimicrobial activity of 2,5-disubstituted 4-thiazolidinones: a comparative study” (2012)
Active and inactive are the calls of the source. The calls are words filed in the database; no cut-off is given here.

Tests used:
Escherichia coli [1] = assay: Antibacterial activity against Escherichia coli MTCC 739 at 100 ug/ml by cup-plate method; type: functional; conditions: read-out: DIZ
Escherichia coli [2] = assay: Antibacterial activity against Escherichia coli MTCC 739 at 50 ug/ml by cup-plate method; type: functional; conditions: read-out: DIZ
Pseudomonas aeruginosa [3] = assay: Antibacterial activity against Pseudomonas aeruginosa MTCC 2453 at 300 ug/ml by cup-plate method; type: functional; conditions: read-out: DIZ
Pseudomonas aeruginosa [4] = assay: Antibacterial activity against Pseudomonas aeruginosa MTCC 2453 at 100 ug/ml by cup-plate method; type: functional; conditions: read-out: DIZ
Pseudomonas aeruginosa [5] = assay: Antibacterial activity against Pseudomonas aeruginosa MTCC 2453 at 200 ug/ml by cup-plate method; type: functional; conditions: read-out: DIZ
Pseudomonas aeruginosa [6] = assay: Antibacterial activity against Pseudomonas aeruginosa MTCC 2453 at 50 ug/ml by cup-plate method; type: functional; conditions: read-out: DIZ
Bacillus subtilis [7] = assay: Antibacterial activity against Bacillus subtilis MTCC 121 at 300 ug/ml by cup plate method; type: functional; conditions: read-out: DIZ
Bacillus subtilis [8] = assay: Antibacterial activity against Bacillus subtilis MTCC 121 at 200 ug/ml by cup plate method; type: functional; conditions: read-out: DIZ
Bacillus subtilis [9] = assay: Antibacterial activity against Bacillus subtilis MTCC 121 at 50 ug/ml by cup plate method; type: functional; conditions: read-out: DIZ
Bacillus subtilis [10] = assay: Antibacterial activity against Bacillus subtilis MTCC 121 at 100 ug/ml by cup plate method; type: functional; conditions: read-out: DIZ
Staphylococcus aureus [11] = assay: Antibacterial activity against Staphylococcus aureus MTCC 96 at 300 ug/ml by cup-plate method; type: functional; conditions: read-out: DIZ
Staphylococcus aureus [12] = assay: Antibacterial activity against Staphylococcus aureus MTCC 96 at 200 ug/ml by cup-plate method; type: functional; conditions: read-out: DIZ
Staphylococcus aureus [13] = assay: Antibacterial activity against Staphylococcus aureus MTCC 96 at 100 ug/ml by cup-plate method; type: functional; conditions: read-out: DIZ
Staphylococcus aureus [14] = assay: Antibacterial activity against Staphylococcus aureus MTCC 96 at 50 ug/ml by cup-plate method; type: functional; conditions: read-out: DIZ
Escherichia coli [15] = assay: Antibacterial activity against Escherichia coli MTCC 739 by cup-plate method; type: functional, organism-based
Pseudomonas aeruginosa [16] = assay: Antibacterial activity against Pseudomonas aeruginosa MTCC 2453 by cup-plate method; type: functional, organism-based
Bacillus subtilis [17] = assay: Antibacterial activity against Bacillus subtilis MTCC 121 by cup plate method; type: functional, organism-based
Staphylococcus aureus [18] = assay: Antibacterial activity against Staphylococcus aureus MTCC 96 by cup-plate method; type: functional, organism-based
Candida albicans = assay: Antifungal activity against Candida albicans MTCC 227 at 50 to 300 ug/ml by cup-plate method; type: functional, organism-based
Escherichia coli [19] = assay: Antibacterial activity against Escherichia coli MTCC 739 at 300 ug/ml by cup-plate method; type: functional; conditions: read-out: DIZ
Escherichia coli [20] = assay: Antibacterial activity against Escherichia coli MTCC 739 at 200 ug/ml by cup-plate method; type: functional; conditions: read-out: DIZ

SMILES | zone of inhibition at 100 µg/mL (Escherichia coli [1]) [mm] | zone of inhibition at 50 µg/mL (Escherichia coli [2]) [mm] | zone of inhibition at 300 µg/mL (Pseudomonas aeruginosa [3]) [mm] | zone of inhibition at 100 µg/mL (Pseudomonas aeruginosa [4]) [mm] | zone of inhibition at 200 µg/mL (Pseudomonas aeruginosa [5]) [mm] | zone of inhibition at 50 µg/mL (Pseudomonas aeruginosa [6]) [mm] | zone of inhibition at 300 µg/mL (Bacillus subtilis [7]) [mm] | zone of inhibition at 200 µg/mL (Bacillus subtilis [8]) [mm] | zone of inhibition at 50 µg/mL (Bacillus subtilis [9]) [mm] | zone of inhibition at 100 µg/mL (Bacillus subtilis [10]) [mm] | zone of inhibition at 300 µg/mL (Staphylococcus aureus [11]) [mm] | zone of inhibition at 200 µg/mL (Staphylococcus aureus [12]) [mm] | zone of inhibition at 100 µg/mL (Staphylococcus aureus [13]) [mm] | zone of inhibition at 50 µg/mL (Staphylococcus aureus [14]) [mm] | Activity (Escherichia coli [15]) | Activity (Pseudomonas aeruginosa [16]) | Activity (Bacillus subtilis [17]) | Activity (Staphylococcus aureus [18]) | Activity (Candida albicans) | zone of inhibition at 300 µg/mL (Escherichia coli [19]) [mm] | other results
COc1cc(/C=C2\S/C(=N/c3cccc(Cl)c3)NC2=O)ccc1O | 8 | 7 | 9 | 8 | 9 | 6 | 9 | 8 | 7 | 8 | 8 | 8 | 7 | 6 | Dose-dependent effect | Dose-dependent effect | Dose-dependent effect | Dose-dependent effect | inactive | 9 | zone of inhibition at 200 µg/mL (Escherichia coli [20]): 9 mm
O=C1N/C(=N\c2ccc(F)c(Cl)c2)S/C1=C\c1ccccc1 | 8 | 7 | 12 | 10 | 10 | 8 | 12 | 10 | 6 | 6 | 10 | 10 | 10 | 6 | Dose-dependent effect | Dose-dependent effect | Dose-dependent effect | Dose-dependent effect | inactive | 12 | zone of inhibition at 200 µg/mL (Escherichia coli [20]): 11 mm
O=C1N/C(=N\c2cccc(Cl)c2)S/C1=C\c1cccc([N+](=O)[O-])c1 | 7 | 7 | 9 | 8 | 9 | 8 | 10 | 9 | 8 | 9 | 10 | 9 | 9 | 8 | Dose-dependent effect | Dose-dependent effect | Dose-dependent effect | Dose-dependent effect | inactive | 8 | zone of inhibition at 200 µg/mL (Escherichia coli [20]): 8 mm
COc1cc(/C=C2\S/C(=N/c3ccc(Cl)cc3)NC2=O)ccc1O | 8 | 7 | 9 | 7 | 8 | 7 | 7 | 7 | 6 | 7 | 8 | 7 | 6 | 6 | Dose-dependent effect | Dose-dependent effect | Dose-dependent effect | Dose-dependent effect | inactive | 9 | zone of inhibition at 200 µg/mL (Escherichia coli [20]): 9 mm
O=C1N/C(=N\c2cccc(Cl)c2)S/C1=C\c1ccccc1[N+](=O)[O-] | 8 | 6 | 9 | 8 | 9 | 7 | 10 | 9 | 9 | 9 | 10 | 10 | 9 | 8 | Dose-dependent effect | Dose-dependent effect | Dose-dependent effect | Dose-dependent effect | inactive | 9 | zone of inhibition at 200 µg/mL (Escherichia coli [20]): 9 mm
O=C1N/C(=N\c2ccc(F)c(Cl)c2)S/C1=C\c1ccc(Cl)cc1 | 12 | 9 | 12 | 9 | 11 | 8 | 13 | 11 | 8 | 10 | 14 | 12 | 12 | 10 | Dose-dependent effect | Dose-dependent effect | Dose-dependent effect | Dose-dependent effect | inactive | 12 | zone of inhibition at 200 µg/mL (Escherichia coli [20]): 12 mm
O=C1N/C(=N\c2ccc(Cl)cc2)S/C1=C\c1ccccc1 | 8 | 7 | 11 | 8 | 8 | 8 | 10 | 9 | 5 | 8 | 10 | 9 | 8 | 5 | Dose-dependent effect | Dose-dependent effect | Dose-dependent effect | Dose-dependent effect | inactive | 12 | zone of inhibition at 200 µg/mL (Escherichia coli [20]): 10 mm
O=C1N/C(=N\c2ccc(Cl)cc2)S/C1=C\c1ccc(Cl)cc1 | 8 | 8 | 10 | 7 | 8 | 6 | 10 | 8 | 7 | 8 | 10 | 9 | 8 | 6 | Dose-dependent effect | Dose-dependent effect | Dose-dependent effect | Dose-dependent effect | inactive | 9 | zone of inhibition at 200 µg/mL (Escherichia coli [20]): 7 mm
O=C1N/C(=N\c2ccc(F)c(Cl)c2)S/C1=C\c1ccccc1Cl | 8 | 8 | 12 | 10 | 12 | 10 | 14 | 14 | 10 | 12 | 14 | 12 | 11 | 10 | Dose-dependent effect | Dose-dependent effect | Dose-dependent effect | Dose-dependent effect | inactive | 10 | zone of inhibition at 200 µg/mL (Escherichia coli [20]): 9 mm
COc1cc(/C=C2\S/C(=N/c3ccc(F)c(Cl)c3)NC2=O)ccc1O | 8 | 7 | 10 | 9 | 10 | 7 | 10 | 8 | 7 | 8 | 11 | 9 | 8 | 7 | Dose-dependent effect | Dose-dependent effect | Dose-dependent effect | Dose-dependent effect | inactive | 9 | zone of inhibition at 200 µg/mL (Escherichia coli [20]): 8 mm
O=C(O)c1cn(C2CC2)c2cc(N3CCNCC3)c(F)cc2c1=O [CIPROFLOXACIN] |  |  |  | 15 |  |  |  |  |  | 15 |  |  | 14 |  |  |  |  |  |  |  | 
